Experimental data as given in patent US20070020193A1, “Dronabinol compositions and methods for using same” (priority 2005, published 2007).

Assay: Example 2 multiple rising dose inhaled delta-9-THC study: plasma pharmacokinetics
Experimental: A randomized, double-blind, placebo-controlled, multiple rising dose safety, tolerability, pharmacokinetic and pharmacodynamic study to assess two dose levels of inhaled delta-9-THC was conducted. Dose levels were studied in ascending order. Two consecutive groups (n=9/group) of healthy subjects were studied (Groups I and II). […] There was a lapse of at least 10 days between the groups for interim safety and pharmacokinetic analysis. Two dose levels were studied in ascending order. […] Subjects in each treatment Group (I or II) received single and multiple doses of inhaled delta-9-THC according to the following schedule:
For both dose levels, the first and the last dose of study drug was given under fasted conditions. Subjects were confined to the study site from the evening of Day −2 (Day 1 is the day of administration of the first dose of study drug) until the 120-hour blood sample following the final dose of study drug, resulting in an 18-day confinement period for subjects in Group I and a 25-day confinement period for Group II. Between the completion of Group I and the start of Group II, an interim safety and pharmacokinetic analysis was performed. Based on the results of the interim analyses, the dose level for investigation in Group II was determined.
Two MDI dosage strengths were used corresponding to the same formulations used in Example 1: one delivering 0.3 mg delta-9-THC (or placebo) per actuation and one delivering 1.2 mg delta-9-THC (or placebo) per actuation. The MDI consisted of a pressurized (via propellants) container and a metered-dose valve. The propellants provided the necessary force to expel the drug, and also acted as a solvent and diluent. The canister unit was provided within a mouthpiece (oral adapter), to expel an exact amount of drug, in the proper particle size distribution, upon each actuation. Two basic formulations containing 0.3 and 1.2 mg of delta-9-THC per 50 μL were developed with propellant 1,1,1,2 tetrafluoroethane 134a (HFA 134a), and ethanol as solvent. The formulations were made in accordance with the composition used in Example 1.
Whole blood samples were collected according to the assessment flowchart in EDTA tubes through venepuncture or indwelling catheter. Samples were immediately placed on ice and subsequently centrifuged within 30 minutes at 1,500 g for 10 minutes. Plasma was transferred into a 5 ml screw cap polypropylene tube, stoppered and stored at below minus 20° C. until transfer to the analytical laboratory for analysis. […] The measurement ranges were 0.05-30 ng/ml for delta-9-THC, 0.04-30 ng/ml for 11-OH-THC, and 0.25-10 ng/ml for THC-COOH.
For Example 2: The statistical analysis encompassed an exploratory analysis of the single and multiple dose pharmacokinetics and dose proportionality of two dose levels of inhaled delta-9-THC in healthy subjects. Descriptive statistics included number of subjects, mean, standard deviation, coefficient of variation (%) and geometric mean for all pharmacokinetic parameters.
The exploratory analysis was performed on the logarithms of the dose-normalized pharmacokinetic parameters AUC(0-inf), AUC(0-t), AUC(0-τ) and Cmax. Dose proportionality was tested both at single dose and at multiple dose (steady state) by comparing the dose groups for all pharmacokinetic parameters by an analysis of variance with dose as fixed effect.
Dose proportionality was tested by the contrast between the dose groups. For this contrast on the logarithmic scale, p-values were given. After anti-logarithmic transformation, the resultant ratios of geometric means and 90% confidence intervals were given.
Accumulation was tested by comparing the steady state values for AUC(0-τ) with the single dose values for AUC(0-τ) by a mixed model analysis of variance with dose and day (with levels single dose and steady state) as fixed effects and subject within dose as random effect.

For `CCCCCc1cc(O)c2c(c1)OC(C)(C)C1CCC(C(=O)O)=CC21` (stereo not drawn) [THC-COOH, delta-9-tetrahydrocannbinol-carboxylic acid], the “achievement of steady state” value (1.2 mg delta-9-THC three times daily) was “lack of steady state”, the “Cmax, Geometric Mean (Range)” value (1.2 mg m.d. (three times daily), Day 12, Group I) was 7.97 (6.03-10.9) ng/mL and the “AUC(0-8), Arithmetic Mean (SD)” value (1.2 mg m.d., Day 12, Group I) was 51.9 (14.7) ng · h/mL. For the same compound, the “AUC(0-8), Geometric Mean (Range)” value (1.2 mg m.d., Day 12, Group I) was 50.1 (34.1-69.8) ng · h/mL, the “Cmax, Arithmetic Mean (SD)” value (1.2 mg m.d., Day 12, Group I) was 8.15 (1.87) ng/mL and the “tmax, Arithmetic Mean (SD)” value (1.2 mg m.d., Day 12, Group I) was 0.86 (0.88) h. For the same compound, the “tmax, median (range)” value (1.2 mg m.d., Day 12, Group I) was 0.33 (0.25-2.00) h, the “t½, Arithmetic Mean (SD)” value (1.2 mg m.d., Day 12, Group I) was 32.1 (9.07) h and the “t½, Geometric Mean (Range)” value (1.2 mg m.d., Day 12, Group I) was 31.0 (23.2-43.8) h. The “AUC(0-8), Arithmetic Mean (SD)” value (1.2 mg s.d., Day 1) was 18.5 (3.85) ng · h/mL, the “AUC(0-8), Geometric Mean (Range)” value (1.2 mg s.d., Day 1) was 18.2 (13.0-24.2) ng · h/mL and the “AUC(0-inf), Arithmetic Mean (SD)” value (1.2 mg s.d., Day 1) was 83.6 (18.5) ng · h/mL. The “AUC(0-inf), Geometric Mean (Range)” value (1.2 mg s.d., Day 1) was 82.0 (60.5-110) ng · h/mL, the “tmax, Arithmetic Mean (SD)” value (1.2 mg s.d., Day 1) was 1.54 (0.75) h and the “tmax, median (range)” value (1.2 mg s.d., Day 1) was 2.00 (0.25-2.00) h. For the same compound, the “t½, Arithmetic Mean (SD)” value (1.2 mg s.d., Day 1) was 33.9 (12.8) h, the “t½, Geometric Mean (Range)” value (1.2 mg s.d., Day 1) was 32.0 (23.9-50.6) h and the “Cmax, Arithmetic Mean (SD)” value (1.2 mg s.d., Day 1, plasma) was 3.81 (0.56) ng/mL. The “Cmax, Geometric Mean (Range)” value (1.2 mg s.d., Day 1, plasma) was 3.77 (2.81-4.40) ng/mL, the “Cmax, Geometric Mean (Range)” value (3.6 mg m.d. (three times daily), Day 19, Group II) was 25.5 (13.2-45.0) ng/mL and the “AUC(0-8), Arithmetic Mean (SD)” value (3.6 mg m.d., Day 19, Group II) was 182 (97.5) ng · h/mL. The “AUC(0-8), Geometric Mean (Range)” value (3.6 mg m.d., Day 19, Group II) was 159 (75.5-317) ng · h/mL, the “Cmax, Arithmetic Mean (SD)” value (3.6 mg m.d., Day 19, Group II) was 28.1 (12.7) ng/mL and the “tmax, Arithmetic Mean (SD)” value (3.6 mg m.d., Day 19, Group II) was 1.03 (0.79) h. For the same compound, the “tmax, median (range)” value (3.6 mg m.d., Day 19, Group II) was 0.75 (0.33-2.00) h, the “t½, Arithmetic Mean (SD)” value (3.6 mg m.d., Day 19, Group II) was 39.6 (15.3) h and the “t½, Geometric Mean (Range)” value (3.6 mg m.d., Day 19, Group II) was 37.4 (24.0-62.3) h. The “AUC(0-8), Arithmetic Mean (SD)” value (3.6 mg s.d., Day 1) was 47.1 (17.5) ng · h/mL, the “AUC(0-8), Geometric Mean (Range)” value (3.6 mg s.d., Day 1) was 44.5 (30.2-74.4) ng · h/mL and the “AUC(0-inf), Arithmetic Mean (SD)” value (3.6 mg s.d., Day 1) was 172 (85.6) ng · h/mL. For the same compound, the “AUC(0-inf), Geometric Mean (Range)” value (3.6 mg s.d., Day 1) was 152 (64.8-283) ng · h/mL, the “tmax, Arithmetic Mean (SD)” value (3.6 mg s.d., Day 1) was 2.33 (0.52) h and the “tmax, median (range)” value (3.6 mg s.d., Day 1) was 2.00 (2.00-3.00) h. For the same compound, the “t½, Arithmetic Mean (SD)” value (3.6 mg s.d., Day 1) was 23.8 (11.3) h, the “t½, Geometric Mean (Range)” value (3.6 mg s.d., Day 1) was 21.7 (11.3-39.2) h and the “Cmax, Arithmetic Mean (SD)” value (3.6 mg s.d., Day 1, plasma) was 8.75 (3.16) ng/mL. For the same compound, the “Cmax, Geometric Mean (Range)” value (3.6 mg s.d., Day 1, plasma) was 8.34 (6.01-14.4) ng/mL, the “achievement of steady state” value (3.6-mg dose level three times daily) was “achieved after seven or eight days of dosing” and the “accumulation during multiple dosing” value (8-hours dosing interval) was “accumulation occurred during multiple dosing”. For the same compound, the “Ratio AUC(0-8) m.d./AUC(0-8) s.d. (Accumulation factor), Mean” value (Group I, 1.2 mg) was 2.90, the “Ratio AUC(0-8) m.d./AUC(0-inf) s.d. (Linearity), Mean” value (Group I, 1.2 mg) was 0.65 and the “Ratio AUC(0-8) m.d./AUC(0-8) s.d. (Accumulation factor), Mean” value (Group II, 3.6 mg) was 3.92. The “Ratio AUC(0-8) m.d./AUC(0-inf) s.d. (Linearity), Mean” value (Group II, 3.6 mg) was 1.11, the “dose proportionality: geometric mean ratio (3.6 mg:1.2 mg) of dose-normalized AUC(0-8) (90% confidence interval)” value (Multiple dose) was 1.05 (0.65-1.71) and the “dose proportionality: geometric mean ratio (3.6 mg:1.2 mg) of dose-normalized Cmax (90% confidence interval)” value (Multiple dose) was 1.07 (0.71-1.60). The “dose proportionality: geometric mean ratio (3.6 mg:1.2 mg) of dose-normalized AUC(0-8) (90% confidence interval)” value (Single dose) was 0.82 (0.60-1.11), the “dose proportionality: geometric mean ratio (3.6 mg:1.2 mg) of dose-normalized AUC(0-inf) (90% confidence interval)” value (Single dose) was 0.62 (0.39-0.98) and the “dose proportionality: geometric mean ratio (3.6 mg:1.2 mg) of dose-normalized AUC(0-t) (90% confidence interval)” value (Single dose) was 0.61 (0.34-1.09). For the same compound, the “dose proportionality: geometric mean ratio (3.6 mg:1.2 mg) of dose-normalized Cmax (90% confidence interval)” value (Single dose) was 0.74 (0.56-0.96), the “exposure, fold higher compared to the parent” value (after both single and multiple dose administration) was “approximately 10 fold” and the “Cmax, fold lower compared to the parent compound” value (after single dosing) was 5 fold. For the same compound, the “dose proportionality of pharmacokinetic parameters” value (after single or multiple dose administration) was “not found to deviate significantly”, the “plasma concentration-time curve, elimination profile” value (both dose levels) was “almost no distribution phase and a multi-phasic elimination phase” and the “time of peak plasma concentration” value (both dose levels, post-dose) was “between 15 minutes and 3 hours post-dose”. For the same compound, the “ratios of AUC(0-8) after multiple dosing versus AUC(0-inf) after single dose (linearity)” value (in vivo) was “did not deviate clearly or significantly from unity”, the “Cmax and AUC values versus dose” value (single and multiple dose administration, 1.2 and 3.6 mg) was “Dose-related increases” and the “Terminal elimination half-lives (summary estimate)” value (summary, best estimated after multiple dosing) was about 30 h.
